From patent US20100197727A1, “Quinoline Derivatives as Antibacterial Agents” (priority 2005, published 2010)

How the values were obtained:
S. aureus = test: Time kill assay; format: cell-based, Staphylococcus aureus; settings: for bactericidal activity in time kill assay: observed at 1 and 10 times MIC90
Source text: (§1) Bactericidal or bacteriostatic activity of the compounds may be determined in a time kill assay using the broth microdilution method*. In a time kill assay on Staphylococcus aureus and methicillin resistant S. aureus (MRSA), the starting inoculum of S. aurues and MRSA is 10^6 CFU/ml in Muller Hinton broth. The antibacterial compounds are used at the concentration of 0.1 to 10 times the MIC (i.e. IC90 as determined in microtitre plate assay). Wells receiving no antibacterial agent constitute the culture growth control. The plates containing the microorganism and the test compounds are incubated at 37° C. After 0, 4, 24, and 48 hrs of incubation samples are removed for determination of viable counts by serial dilution (10^−1 to 10^−6) in sterile PBS and plating (200 μl) on Mueller Hinton agar. The plates are incubated at 37° C. for 24 hrs and the number of colonies are determined Killing curves can be constructed by plotting the log10 CFU per ml versus time. A bactericidal effect is commonly defined as 3-log10 decrease in number of CFU per ml as compared to untreated inoculum. The potential carryover effect of the drugs is removed by serial dilutions and counting the colonies at highest dilution used for plating. No carryover effect is observed at the dilution of 10^−2 used for plating. […] Antimicrob. Agents Chemother. 40, 839-845 (1996).
A time kill assay was performed with compound 102 and the control drug ciprofloxacin.

[1] = system: Enterococcus faecalis (ATCC29212); test: Microtitre plate assay, IC90 determination; format: cell-based; settings: 90% inhibitory concentration for bacterial growth
Experimental: (§2) The bacteria used in this study were grown overnight in flasks containing 100 ml Mueller-Hinton Broth (Becton Dickinson—cat. no. 275730) in sterile de-ionized water, with shaking, at 37° C. Stocks (0.5 ml/tube) were stored at −70° C. until use. Bacteria titrations were performed in microtiter plates and colony forming units (CFUs) were determined In general, an inoculum level of approximately 100 CFUs was used for susceptibility testing.
(§3) Flat-bottom, sterile 96-well plastic microtiter plates were filled with 180 μl of sterile deionized water, supplemented with 0.25% BSA. Subsequently, stock solutions (7.8× final test concentration) of compounds were added in 45 μl volumes in column 2. Serial five-fold dilutions (45 μl in 180 μl ) were made directly in the microtiter plates from column 2 to reach column 11. Untreated control samples with (column 1) and without (column 12) inoculum were included in each microtiter plate. Depending on the bacteria type, approximately 10 to 60 CFU per well of bacteria inoculum (100 TCID50), in a volume of 100 μl in 2.8× Mueller-Hinton broth medium, was added to the rows A to H, except column 12. The same volume of broth medium without inoculum was added to column 12 in row A to H. The cultures were incubated at 37° C. for 24 hours under a normal atmosphere (incubator with open air valve and continuous ventilation). At the end of incubation, one day after inoculation, the bacterial growth was quantitated fluorometrically. Therefore resazurin (0.6 mg/ml) was added in a volume of 20 μl to all wells 3 hours after inoculation, and the plates were re-incubated overnight. A change in colour from blue to pink indicated the growth of bacteria. The fluorescence was read in a computer-controlled fluorometer (Cytofluor Biosearch) at an excitation wavelength of 530 nm and an emission wavelength of 590 nm. The % growth inhibition achieved by the compounds was calculated according to standard methods. The IC90 (expressed in μg/ml) was defined as the 90% inhibitory concentration for bacterial growth.

[2] = system: Staphylococcus aureus (ATCC29213); test: Microtitre plate assay, IC90 determination; format: cell-based; settings: 90% inhibitory concentration for bacterial growth
Experimental: as §2, §3

[3] = system: Streptococcus pneumoniae (ATCC6305); test: Microtitre plate assay, IC90 determination; format: cell-based; settings: 90% inhibitory concentration for bacterial growth
Experimental: as §2, §3

[4] = system: Streptococcus mutans (ATCC33402); test: Microtitre plate assay, IC90 determination; format: cell-based; settings: 90% inhibitory concentration for bacterial growth
Experimental: as §2, §3

[5] = system: Enterococcus faecalis (ATCC14506); test: Microtitre plate assay, IC90 determination; format: cell-based; settings: 90% inhibitory concentration for bacterial growth
Experimental: as §2, §3

[6] = system: Listeria monocytogenes (ATCC49594); test: Microtitre plate assay, IC90 determination; format: cell-based; settings: 90% inhibitory concentration for bacterial growth
Experimental: as §2, §3

[7] = system: methicilline resistant Staphylococcus aureus (MRSA) (a clinical isolate from the University of Antwerp); test: Microtitre plate assay, IC90 determination; format: cell-based; settings: 90% inhibitory concentration for bacterial growth
Experimental: as §2, §3

[8] = system: Escherichia coli (ATCC25922); test: Microtitre plate assay, IC90 determination; format: cell-based; settings: 90% inhibitory concentration for bacterial growth
Experimental: as §2, §3

[9] = system: Staphylococcus aureus (ATCC43300); test: Microtitre plate assay, IC90 determination; format: cell-based; settings: 90% inhibitory concentration for bacterial growth
Experimental: as §2, §3

[10] = system: Staphylococcus aureus (ATCC25923); test: Microtitre plate assay, IC90 determination; format: cell-based; settings: 90% inhibitory concentration for bacterial growth
Experimental: as §2, §3

[11] = system: Pseudomonas aeruginosa (ATCC27853); test: Microtitre plate assay, IC90 determination; format: cell-based; settings: 90% inhibitory concentration for bacterial growth
Experimental: as §2, §3

[12] = system: Bacillus subtilis (ATCC43639); test: Microtitre plate assay, IC90 determination; format: cell-based; settings: 90% inhibitory concentration for bacterial growth
Experimental: as §2, §3

[13] = system: Streptococcus pyogens (ATCC8668); test: Microtitre plate assay, IC90 determination; format: cell-based; settings: 90% inhibitory concentration for bacterial growth
Experimental: as §2, §3

[14] = system: Escherichia coli (ATCC35218); test: Microtitre plate assay, IC90 determination; format: cell-based; settings: 90% inhibitory concentration for bacterial growth
Experimental: as §2, §3

MRSA = test: Time kill assay; format: cell-based, methicillin resistant S. aureus
Source text: as §1, with “(1996). […]” for “(1996).”

| Compound | MIC (1× MIC used in time kill assay) (S. aureus; MIC i.e. IC90 as determined in microtitre plate assay) | growth in time kill assay (S. aureus; at 0.1 times the MIC) | bactericidal activity in time kill assay (S. aureus) | IC90 EFA 29212 [1] | IC90 STA 29213 [2] | IC90 SPN 6305 [3] | IC90 SMU 33402 [4] | IC90 EFA 14506 [5] | IC90 LMO 49594 [6] | IC90 STA RMETH [7] | IC90 ECO 25922 [8] | IC90 STA 43300 [9] | IC90 STA 25923 [10] | IC90 PAE 27853 [11] | IC90 BSU 43639 [12] | IC90 SPY 8668 [13] | IC90 ECO 35218 [14] | bactericidal activity in time kill assay (MRSA) |
| --- | --- | --- | --- | --- | --- | --- | --- | --- | --- | --- | --- | --- | --- | --- | --- | --- | --- | --- |
| COc1nc2ccc(Br)cc2cc1C(c1ccccc1)C(O)(CC[N+](C)(C)C)c1cccc2ccccc12.[I-] (single isomer, unassigned) [Compound 102] | 2.3 µg/mL | followed the control in growth | bactericidal activity | 2.8 µg/mL | 2.8 µg/mL | 3.1 µg/mL | 2.5 µg/mL | 2.8 µg/mL | 2.2 µg/mL | 2.8 µg/mL | 13.9 µg/mL | 3.5 µg/mL | 2.2 µg/mL | 13.9 µg/mL | 2.8 µg/mL | 2.5 µg/mL |  |  |
| COc1nc2ccc(Br)cc2cc1C(c1ccccc1)C(O)(CC[N+](C)(C)C)c1cccc2ccccc12.[I-] (single isomer, unassigned) [Compound 103] |  |  |  | 2.8 µg/mL | 2.0 µg/mL | 3.5 µg/mL | 2.8 µg/mL | 2.8 µg/mL | 0.5 µg/mL | 2.2 µg/mL | 11.1 µg/mL | 2.8 µg/mL | 2.2 µg/mL | 13.9 µg/mL | 2.8 µg/mL | 2.8 µg/mL | 17.5 µg/mL |  |
| O=C(O)c1cn(C2CC2)c2cc(N3CCNCC3)c(F)cc2c1=O [ciprofloxacin, reference compound] |  |  | bactericidal activity |  |  |  |  |  |  |  |  |  |  |  |  |  |  | no bactericidal effect |
